pKd: −log10 of the molar value.
Legend:
pseudoknot RNA [1] = assay: 1H,15N-HSQC NMR experiments (chemical shift perturbation, binding site mapping); parameters: species or system SARS-CoV-2
pseudoknot RNA [2] = assay: inline probing experiments; type: binding, SARS-CoV-2
SARS-CoV-2 pseudoknot = assay: ligand observed fluorescence titrations (binding to the pseudoknot); details: for pKd: binding to the pseudoknot structure, Figure 3
SARS-CoV-2 = details: Wang et al., 2020, Zhang et al.; cited from earlier work
COVID-19 = details: Cao et al., 2020; cited from earlier work
[3] = at higher concentrations; Borba et al., 2020; cited from earlier work

Cc1ccc(C)n1CCC(=O)Nc1ccc2nc[nH]c(=O)c2c1 [D05, 3-(2,5-dimethyl-1H-pyrrol-1-yl)-N-(4-oxo-3,4-dihydroquinazolin-6-yl)propanamide]
interactions with the RNA in NMR experiments (pseudoknot RNA [1]): showed interactions with the RNA
interactions with the RNA in in-line probing experiments (pseudoknot RNA [2]): showed interactions with the RNA
pKd (SARS-CoV-2 pseudoknot): 3.85

COc1ccc(-c2cc(-c3ccncc3)nc(N3C[C@H](N)C[C@H](N)C3)n2)cc1 [D01+DAP, (3R,5S)-1-(4-(4-methoxyphenyl)-6-(pyridin-4-yl)pyrimidin-2-yl)piperidine-3,5-diamine]
binding site from chemical shift perturbation and decreasing signal intensity (pseudoknot RNA [1]; addition of ligand to pseudoknot RNA, Figure 4A): confirmed one of the binding hot spots (HS2) as a binding site
interaction in inline probing (pseudoknot RNA [2]; Figure 4B): interaction of D01+DAP and the pseudoknot RNA in the predicted HS1 and the loop region (L2)
pKd (SARS-CoV-2 pseudoknot): 6.52
binding affinity to the SARS-CoV-2 pseudoknot (ranking among evaluated derivatives) (SARS-CoV-2 pseudoknot; ligand observed fluorescence titrations, Figures 3 and 14): highest binding affinity

NC(=O)c1ncn([C@@H]2O[C@H](CO)[C@@H](O)[C@H]2O)n1 [Ribavirin]
antiviral activity (SARS-CoV-2): two- or three-digit micromolar range

Cc1cccc(C)c1OCC(=O)N[C@@H](Cc1ccccc1)[C@@H](O)C[C@H](Cc1ccccc1)NC(=O)[C@H](C(C)C)N1CCCNC1=O [lopinavir]
effect in clinical tests (COVID-19): no effect

NC(=O)c1nc(F)cnc1O [favipavir]
antiviral activity (SARS-CoV-2): two- or three-digit micromolar range

CC(C)(C)OC(=O)Nc1cccn([C@@H](CC2CC2)C(=O)N[C@@H](C[C@@H]2CCNC2=O)C(=O)C(=O)NCc2ccccc2)c1=O [α-ketoamide-Inhibitor 13b]
antiviral activity (SARS-CoV-2): low micromolar range

CCN(CC)CCCC(C)Nc1ccnc2cc(Cl)ccc12 (stereo not drawn) [chloroquine]
side-effects [3]: heart arrhythmia

Source: patent publication EP4212633A1 (priority 2022, dated 2023)
